This passage reports IC50 and CC50 results from ChEMBL document CHEMBL1821711, “Design and synthesis of novel arylpiperazine derivatives containing the imidazole core targeting 5-HT(2A) receptor and 5-HT transporter” (J Med Chem, 2011).

Among the targets are Cytochrome P450 3A4 (Homo sapiens, UniProt P08684); Cytochrome P450 2C9 (Homo sapiens, UniProt P11712); Cytochrome P450 2D6 (Homo sapiens, UniProt P10635); D(3) dopamine receptor (Homo sapiens, UniProt P35462); D(2) dopamine receptor (Homo sapiens, UniProt P14416).
A further data set is described as follows: in vitro. The following applies: mouse, ht-22.
Data set [1] addresses Voltage-gated inwardly rectifying potassium channel KCNH2 (Homo sapiens, UniProt Q12809).
Description: Displacement of [3H]astemizole from human ERG expressed in HEK293 cells
In data set [2] the target is T1, 5-hydroxytryptamine receptor 2C (Homo sapiens, UniProt P28335).
T1 sequence (P28335 whole entry): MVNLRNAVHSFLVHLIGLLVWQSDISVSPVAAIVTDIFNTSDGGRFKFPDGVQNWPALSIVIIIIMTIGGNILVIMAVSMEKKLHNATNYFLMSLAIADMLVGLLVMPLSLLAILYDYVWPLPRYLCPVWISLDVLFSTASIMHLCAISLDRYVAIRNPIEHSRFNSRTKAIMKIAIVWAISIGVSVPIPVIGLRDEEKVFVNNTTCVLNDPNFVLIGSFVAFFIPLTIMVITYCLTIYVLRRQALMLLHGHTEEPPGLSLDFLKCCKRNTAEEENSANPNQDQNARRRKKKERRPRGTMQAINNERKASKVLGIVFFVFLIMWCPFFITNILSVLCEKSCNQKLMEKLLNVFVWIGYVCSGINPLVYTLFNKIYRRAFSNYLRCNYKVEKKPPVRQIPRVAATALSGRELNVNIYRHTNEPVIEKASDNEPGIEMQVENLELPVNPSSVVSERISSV
In words: biochemical. Type of data set: cell-based, CHO-K1.
Description: Displacement of [3H]mesulergine from human recombinant 5-HT2C receptor expressed in CHO-K1 cells

For a further data set, the target named is T2, Cytochrome P450 1A2 (Homo sapiens, UniProt P05177).
T2 sequence (P05177 whole entry): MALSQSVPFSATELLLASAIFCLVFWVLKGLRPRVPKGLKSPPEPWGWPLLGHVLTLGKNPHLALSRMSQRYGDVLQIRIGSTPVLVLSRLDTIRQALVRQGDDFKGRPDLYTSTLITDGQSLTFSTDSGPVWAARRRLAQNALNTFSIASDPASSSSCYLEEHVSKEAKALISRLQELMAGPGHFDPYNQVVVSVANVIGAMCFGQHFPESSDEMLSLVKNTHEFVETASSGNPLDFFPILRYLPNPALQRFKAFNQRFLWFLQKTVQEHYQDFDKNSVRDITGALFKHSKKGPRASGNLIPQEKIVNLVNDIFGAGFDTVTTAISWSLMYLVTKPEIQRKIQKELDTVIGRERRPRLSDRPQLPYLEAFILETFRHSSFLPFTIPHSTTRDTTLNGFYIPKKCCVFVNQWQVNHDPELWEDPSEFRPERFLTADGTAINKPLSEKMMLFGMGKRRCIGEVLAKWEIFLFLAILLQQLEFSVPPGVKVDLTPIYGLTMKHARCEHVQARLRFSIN

For data set [3], the target named is 5-hydroxytryptamine receptor 7 (Homo sapiens, UniProt P34969).
Description: Inhibition of 5HT7 receptor by competition binding assay
Another data set concerns the target T3, D(4) dopamine receptor (Homo sapiens, UniProt P21917).
T3 sequence (P21917 whole entry): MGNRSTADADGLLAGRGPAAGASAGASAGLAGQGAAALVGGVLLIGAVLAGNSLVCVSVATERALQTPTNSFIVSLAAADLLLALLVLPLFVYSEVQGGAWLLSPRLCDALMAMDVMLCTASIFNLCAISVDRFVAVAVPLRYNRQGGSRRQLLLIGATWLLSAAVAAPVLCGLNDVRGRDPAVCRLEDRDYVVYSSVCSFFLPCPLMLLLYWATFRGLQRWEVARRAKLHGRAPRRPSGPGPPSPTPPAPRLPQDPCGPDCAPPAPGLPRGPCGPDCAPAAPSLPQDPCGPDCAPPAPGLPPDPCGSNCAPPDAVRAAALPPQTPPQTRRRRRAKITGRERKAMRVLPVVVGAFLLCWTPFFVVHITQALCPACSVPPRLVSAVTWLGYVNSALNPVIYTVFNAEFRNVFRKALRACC

Data set [4] has as its target 5-hydroxytryptamine receptor 6 (Homo sapiens, UniProt P50406).
Description: Inhibition of 5HT6 receptor by competition binding assay
Data set [5] deals with T4, 5-hydroxytryptamine receptor 1A (Homo sapiens, UniProt P08908).
T4 sequence (P08908 whole entry): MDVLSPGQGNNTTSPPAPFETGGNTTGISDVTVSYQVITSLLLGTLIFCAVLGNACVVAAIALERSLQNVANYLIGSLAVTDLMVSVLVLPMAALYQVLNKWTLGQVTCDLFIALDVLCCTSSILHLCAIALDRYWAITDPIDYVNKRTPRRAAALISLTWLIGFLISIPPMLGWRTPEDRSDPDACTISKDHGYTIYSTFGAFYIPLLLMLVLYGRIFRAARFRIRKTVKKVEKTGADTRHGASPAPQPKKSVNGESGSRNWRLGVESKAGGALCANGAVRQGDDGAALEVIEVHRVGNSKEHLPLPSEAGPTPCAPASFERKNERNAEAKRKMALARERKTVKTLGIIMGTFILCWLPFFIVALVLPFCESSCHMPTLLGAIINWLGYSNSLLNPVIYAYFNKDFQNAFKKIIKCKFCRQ
Description: Inhibition of 5HT1A receptor by competition binding assay

Sequence of D(3) dopamine receptor (P35462 whole entry): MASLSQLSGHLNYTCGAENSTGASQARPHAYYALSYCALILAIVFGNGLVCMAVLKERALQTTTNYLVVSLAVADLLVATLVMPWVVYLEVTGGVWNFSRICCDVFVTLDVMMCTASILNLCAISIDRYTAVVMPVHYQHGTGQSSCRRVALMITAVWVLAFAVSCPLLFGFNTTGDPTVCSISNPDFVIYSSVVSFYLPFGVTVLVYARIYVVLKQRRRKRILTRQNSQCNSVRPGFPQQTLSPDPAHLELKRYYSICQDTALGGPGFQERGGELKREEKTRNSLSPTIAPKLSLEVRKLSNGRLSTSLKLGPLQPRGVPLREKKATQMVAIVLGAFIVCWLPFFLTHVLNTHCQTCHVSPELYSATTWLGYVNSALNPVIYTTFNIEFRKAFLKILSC
Sequence of Voltage-gated inwardly rectifying potassium channel KCNH2 (Q12809 whole entry): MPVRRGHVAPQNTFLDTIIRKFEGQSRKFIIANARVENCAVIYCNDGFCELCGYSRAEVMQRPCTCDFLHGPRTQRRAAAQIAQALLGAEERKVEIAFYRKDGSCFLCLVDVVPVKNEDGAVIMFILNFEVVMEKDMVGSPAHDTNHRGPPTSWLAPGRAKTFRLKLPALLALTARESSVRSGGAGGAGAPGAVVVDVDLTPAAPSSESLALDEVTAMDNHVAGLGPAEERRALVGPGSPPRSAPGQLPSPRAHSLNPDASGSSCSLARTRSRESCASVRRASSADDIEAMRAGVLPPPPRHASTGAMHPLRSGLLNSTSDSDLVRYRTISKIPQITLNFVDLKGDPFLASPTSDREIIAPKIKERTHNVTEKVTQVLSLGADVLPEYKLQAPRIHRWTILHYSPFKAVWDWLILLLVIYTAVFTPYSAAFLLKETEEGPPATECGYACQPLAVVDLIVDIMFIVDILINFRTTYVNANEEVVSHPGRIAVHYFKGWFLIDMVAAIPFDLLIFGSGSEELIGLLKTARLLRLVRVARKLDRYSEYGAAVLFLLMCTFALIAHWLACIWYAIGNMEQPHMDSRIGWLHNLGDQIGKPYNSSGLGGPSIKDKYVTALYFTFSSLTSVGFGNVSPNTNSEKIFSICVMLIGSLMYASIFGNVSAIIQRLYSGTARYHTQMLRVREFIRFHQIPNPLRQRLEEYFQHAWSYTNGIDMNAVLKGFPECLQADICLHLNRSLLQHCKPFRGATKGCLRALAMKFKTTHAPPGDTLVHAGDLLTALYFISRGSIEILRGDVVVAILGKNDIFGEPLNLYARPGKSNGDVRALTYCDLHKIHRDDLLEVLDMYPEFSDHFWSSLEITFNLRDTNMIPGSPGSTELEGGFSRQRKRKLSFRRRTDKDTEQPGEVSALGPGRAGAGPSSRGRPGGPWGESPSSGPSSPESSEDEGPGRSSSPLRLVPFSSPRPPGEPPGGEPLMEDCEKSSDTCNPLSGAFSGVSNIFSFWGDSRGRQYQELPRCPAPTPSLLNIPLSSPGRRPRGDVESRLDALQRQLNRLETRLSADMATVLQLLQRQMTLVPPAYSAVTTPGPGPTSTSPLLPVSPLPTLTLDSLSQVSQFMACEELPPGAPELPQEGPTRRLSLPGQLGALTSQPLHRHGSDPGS
Sequence of D(2) dopamine receptor (P14416 whole entry): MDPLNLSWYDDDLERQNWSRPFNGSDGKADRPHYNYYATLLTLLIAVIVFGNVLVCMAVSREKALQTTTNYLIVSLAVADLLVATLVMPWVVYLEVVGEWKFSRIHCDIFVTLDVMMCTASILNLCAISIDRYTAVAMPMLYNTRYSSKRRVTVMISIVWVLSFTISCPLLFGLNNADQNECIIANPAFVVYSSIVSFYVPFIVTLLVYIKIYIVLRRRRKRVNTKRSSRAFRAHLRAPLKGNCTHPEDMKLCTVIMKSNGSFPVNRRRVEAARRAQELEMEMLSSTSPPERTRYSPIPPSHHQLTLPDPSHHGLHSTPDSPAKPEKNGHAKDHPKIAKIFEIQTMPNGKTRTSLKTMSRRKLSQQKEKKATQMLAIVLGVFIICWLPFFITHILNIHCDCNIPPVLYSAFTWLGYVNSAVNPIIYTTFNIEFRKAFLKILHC
Sequence of 5-hydroxytryptamine receptor 7 (P34969 whole entry): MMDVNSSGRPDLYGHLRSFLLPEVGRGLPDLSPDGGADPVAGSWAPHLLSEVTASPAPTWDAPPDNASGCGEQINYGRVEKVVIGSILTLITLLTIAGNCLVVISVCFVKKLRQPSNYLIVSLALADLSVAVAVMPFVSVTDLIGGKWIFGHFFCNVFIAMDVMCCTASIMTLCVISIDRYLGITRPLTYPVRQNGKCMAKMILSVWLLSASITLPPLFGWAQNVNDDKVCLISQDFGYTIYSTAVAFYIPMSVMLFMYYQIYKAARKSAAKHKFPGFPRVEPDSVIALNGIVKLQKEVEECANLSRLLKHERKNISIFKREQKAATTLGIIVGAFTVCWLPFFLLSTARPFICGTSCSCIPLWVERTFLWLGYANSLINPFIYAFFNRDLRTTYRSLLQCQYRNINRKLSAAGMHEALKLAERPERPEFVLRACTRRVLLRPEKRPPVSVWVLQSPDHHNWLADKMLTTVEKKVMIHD
Sequence of 5-hydroxytryptamine receptor 6 (P50406 whole entry): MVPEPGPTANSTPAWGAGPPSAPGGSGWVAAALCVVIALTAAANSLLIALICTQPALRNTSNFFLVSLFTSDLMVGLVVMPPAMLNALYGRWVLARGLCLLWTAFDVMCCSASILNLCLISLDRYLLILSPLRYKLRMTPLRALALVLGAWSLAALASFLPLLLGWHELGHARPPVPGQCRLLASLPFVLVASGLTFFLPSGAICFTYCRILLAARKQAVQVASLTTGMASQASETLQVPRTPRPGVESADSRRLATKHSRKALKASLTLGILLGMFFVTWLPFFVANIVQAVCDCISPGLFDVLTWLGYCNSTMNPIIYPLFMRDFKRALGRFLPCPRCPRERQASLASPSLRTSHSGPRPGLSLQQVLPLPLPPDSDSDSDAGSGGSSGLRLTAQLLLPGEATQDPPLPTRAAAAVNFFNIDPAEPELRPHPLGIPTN
Sequence of Cytochrome P450 2C9 (P11712 whole entry): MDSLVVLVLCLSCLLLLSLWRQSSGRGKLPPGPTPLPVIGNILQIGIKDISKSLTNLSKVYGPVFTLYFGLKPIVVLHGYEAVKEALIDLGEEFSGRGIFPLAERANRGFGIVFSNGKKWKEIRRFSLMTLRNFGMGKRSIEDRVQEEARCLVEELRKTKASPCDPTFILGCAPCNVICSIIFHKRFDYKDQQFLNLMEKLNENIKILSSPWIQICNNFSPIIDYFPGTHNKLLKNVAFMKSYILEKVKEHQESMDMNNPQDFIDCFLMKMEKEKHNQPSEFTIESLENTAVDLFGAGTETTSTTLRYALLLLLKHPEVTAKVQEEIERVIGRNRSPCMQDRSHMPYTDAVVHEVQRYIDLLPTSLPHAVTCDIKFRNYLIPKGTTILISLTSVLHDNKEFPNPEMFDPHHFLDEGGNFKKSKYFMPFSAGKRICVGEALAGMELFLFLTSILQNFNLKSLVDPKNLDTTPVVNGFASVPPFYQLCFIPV
Sequence of Cytochrome P450 2D6 (P10635 whole entry): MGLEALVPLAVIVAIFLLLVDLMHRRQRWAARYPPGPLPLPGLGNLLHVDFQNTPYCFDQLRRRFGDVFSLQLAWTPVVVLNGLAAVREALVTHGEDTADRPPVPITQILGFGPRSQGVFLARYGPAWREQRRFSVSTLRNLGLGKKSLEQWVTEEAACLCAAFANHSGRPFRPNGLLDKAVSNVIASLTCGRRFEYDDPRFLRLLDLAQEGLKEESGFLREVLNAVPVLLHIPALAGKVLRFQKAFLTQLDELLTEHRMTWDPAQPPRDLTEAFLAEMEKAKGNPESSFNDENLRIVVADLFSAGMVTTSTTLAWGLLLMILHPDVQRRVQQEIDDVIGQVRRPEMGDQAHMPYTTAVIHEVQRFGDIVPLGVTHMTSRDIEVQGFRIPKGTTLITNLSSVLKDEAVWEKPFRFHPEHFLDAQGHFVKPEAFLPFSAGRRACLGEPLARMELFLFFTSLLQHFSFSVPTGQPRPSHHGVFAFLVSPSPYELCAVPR
Sequence of Cytochrome P450 3A4 (P08684 whole entry): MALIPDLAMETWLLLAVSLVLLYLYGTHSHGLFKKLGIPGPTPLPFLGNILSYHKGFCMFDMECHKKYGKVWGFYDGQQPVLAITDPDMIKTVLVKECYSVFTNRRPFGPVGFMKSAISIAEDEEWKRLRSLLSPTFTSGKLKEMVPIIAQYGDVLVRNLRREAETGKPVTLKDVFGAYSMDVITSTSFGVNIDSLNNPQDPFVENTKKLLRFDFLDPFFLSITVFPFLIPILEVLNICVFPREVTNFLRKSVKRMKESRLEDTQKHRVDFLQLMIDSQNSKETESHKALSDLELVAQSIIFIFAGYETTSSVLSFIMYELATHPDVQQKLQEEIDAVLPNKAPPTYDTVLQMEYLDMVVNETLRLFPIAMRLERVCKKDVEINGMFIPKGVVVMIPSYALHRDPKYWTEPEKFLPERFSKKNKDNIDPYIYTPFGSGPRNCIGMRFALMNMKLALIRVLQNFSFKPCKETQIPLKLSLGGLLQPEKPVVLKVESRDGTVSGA
Description for Cytochrome P450 1A2: Inhibition of human recombinant CYP1A2 by luceferin-based assay
Description for Cytochrome P450 2C9: Inhibition of human recombinant CYP2C9 by luceferin-based assay
Description for Cytochrome P450 2D6: Inhibition of human recombinant CYP2D6 by luceferin-based assay
Description for Cytochrome P450 3A4: Inhibition of human recombinant CYP3A4 by luceferin-based assay
Description for D(2) dopamine receptor: Inhibition of dopamine D2 receptor by competition binding assay
Description for D(3) dopamine receptor: Inhibition of dopamine D3 receptor by competition binding assay
Description for D(4) dopamine receptor: inhibition of dopamine D4 receptor by competition binding assay
Description for in vitro: Cytotoxicity against mouse HT22 cells after 48 hrs by MTT assay

On to `Cc1cccc(N2CCN(CCCNC(=O)c3nc(C)n(-c4ccc5c(c4)OCCO5)c3C)CC2)c1C`, for which the IC50 against Cytochrome P450 3A4 was > 20 µM; against Cytochrome P450 2C9, 4.4 µM; against Cytochrome P450 2D6, 17.9 µM; in [1], 8.7 µM; in [2], 4 µM; on Cytochrome P450 1A2 it was > 20 µM. This molecule also returned a CC50 at 48 h in the data set “in vitro” of 19.3 µM.
`Cc1nc(C(=O)NCCCN2CCN(c3cccc(Cl)c3Cl)CC2)c(C)n1-c1ccccc1`: the IC50 in data set [3] was 0.011 µM; on D(4) dopamine receptor, > 10 µM; in data set [4], 0.136 µM; in data set [5], 0.0049 µM; at D(3) dopamine receptor, 0.493 µM; at D(2) dopamine receptor it was 1.37 µM.
Consider `Cc1nc(C(=O)NCCN2CCN(c3cccc(Cl)c3Cl)CC2)c(C)n1-c1ccccc1`, for which the IC50 in data set [3] came to 0.0068 µM; on D(4) dopamine receptor, 3.94 µM; in data set [4] it was 1.68 µM; in data set [5] it was 0.0039 µM; on D(3) dopamine receptor it was 2.19 µM; against D(2) dopamine receptor it was 0.908 µM. In addition, the IC50 in data set [1] was > 10 µM.
